Reference: patent US20230085307A1, “PYRIDAZINONE COMPOUND AND HERBICIDE” (NISSAN CHEMICAL CORPORATION, priority 2019, published 2023)

Key:
barnyard grass [1] = assay: Test Example 3: herbicidal effect by foliage application, Wagner pot (Table 18, symbol H); type: in vivo, barnyard grass (Echinochloa crus-galli); conditions: 320 g/ha
How it was run: (§1)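 Plants were sown in alluvial soil held under 0.1–0.5 cm standing water and grown 14 days in a greenhouse at 25–30 °C. An emulsifiable formulation, water-diluted to the set dose, was then sprayed onto the foliage, and effects were scored three weeks later using previously defined criteria.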

Chinese sprangletop = assay: Test Example 3: herbicidal effect by foliage application, Wagner pot (Table 18, symbol D); type: in vivo, chinese sprangletop (Leptochloa chinensis); conditions: 320 g/ha
How it was run: as §1

rice flat sedge = assay: Test Example 3: herbicidal effect by foliage application, Wagner pot (Table 18, symbol E); type: in vivo, rice flat sedge (Cyperus iria); conditions: 320 g/ha
How it was run: as §1

southern crabgrass [2] = assay: Test Example 4: herbicidal effect by soil treatment (Table 19, symbol F); type: in vivo, southern crabgrass (Digitaria ciliaris)
How it was run: (§2)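 Seeds were sown in sterilized diluvial soil and covered with about 1.5 cm of soil. An emulsion formulation diluted with water to a predetermined herbicide amount was sprayed evenly onto the soil surface. Plants grew in a greenhouse at 25° C. to 30° C., and the effect was scored three weeks after application using criteria from an earlier test.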

green foxtail [3] = assay: Test Example 4: herbicidal effect by soil treatment (Table 19, symbol G); type: in vivo, green foxtail (Setaria viridis)
How it was run: as §2

barnyard grass [4] = assay: Test Example 4: herbicidal effect by soil treatment (Table 19, symbol H); type: in vivo, barnyard grass (Echinochloa crus-galli)
How it was run: as §2

wild oat [5] = assay: Test Example 4: herbicidal effect by soil treatment (Table 19, symbol I); type: in vivo, wild oat (Avena fatua)
How it was run: as §2

blackgrass [6] = assay: Test Example 4: herbicidal effect by soil treatment (Table 19, symbol J); type: in vivo, blackgrass (Alopecurus myosuroides)
How it was run: as §2

Italian ryegrass [7] = assay: Test Example 4: herbicidal effect by soil treatment (Table 19, symbol K); type: in vivo, Italian ryegrass (Lolium multiflorum)
How it was run: as §2

windgrass [8] = assay: Test Example 4: herbicidal effect by soil treatment (Table 19, symbol L); type: in vivo, windgrass (Apera spica-venti)
How it was run: as §2

velvetleaf [9] = assay: Test Example 4: herbicidal effect by soil treatment (Table 19, symbol M); type: in vivo, velvetleaf (Abutilon theophrasti)
How it was run: as §2

redroot pigweed [10] = assay: Test Example 4: herbicidal effect by soil treatment (Table 19, symbol N); type: in vivo, redroot pigweed (Amaranthus retroflexus)
How it was run: as §2

lambsquarters [11] = assay: Test Example 4: herbicidal effect by soil treatment (Table 19, symbol O); type: in vivo, lambsquarters (Chenopodium album)
How it was run: as §2

chickweed [12] = assay: Test Example 4: herbicidal effect by soil treatment (Table 19, symbol P); type: in vivo, common chickweed (Stellaria media)
How it was run: as §2

persian speedwell [13] = assay: Test Example 4: herbicidal effect by soil treatment (Table 19, symbol R); type: in vivo, Persian speedwell (Veronica persica)
How it was run: as §2

southern crabgrass [14] = assay: Test Example 5: herbicidal effect by foliage application, plastic box (Table 20, symbol F); type: in vivo, southern crabgrass (Digitaria ciliaris); conditions: evaluated three weeks after application
How it was run: (§3)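 Plants sown in sterilized diluvial soil and grown 14 days in a greenhouse at 25° C to 30° C, then sprayed on the foliage with the compound's emulsion diluted in water to a predetermined herbicide amount. Injury to weeds and crops scored three weeks after application on a visual rating scale.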

green foxtail [15] = assay: Test Example 5: herbicidal effect by foliage application, plastic box (Table 20, symbol G); type: in vivo, green foxtail (Setaria viridis); conditions: evaluated three weeks after application
How it was run: as §3

barnyard grass [16] = assay: Test Example 5: herbicidal effect by foliage application, plastic box (Table 20, symbol H); type: in vivo, barnyard grass (Echinochloa crus-galli); conditions: evaluated three weeks after application
How it was run: as §3

wild oat [17] = assay: Test Example 5: herbicidal effect by foliage application, plastic box (Table 20, symbol I); type: in vivo, wild oat (Avena fatua); conditions: evaluated three weeks after application
How it was run: as §3

blackgrass [18] = assay: Test Example 5: herbicidal effect by foliage application, plastic box (Table 20, symbol J); type: in vivo, blackgrass (Alopecurus myosuroides); conditions: evaluated three weeks after application
How it was run: as §3

Italian ryegrass [19] = assay: Test Example 5: herbicidal effect by foliage application, plastic box (Table 20, symbol K); type: in vivo, Italian ryegrass (Lolium multiflorum); conditions: evaluated three weeks after application
How it was run: as §3

windgrass [20] = assay: Test Example 5: herbicidal effect by foliage application, plastic box (Table 20, symbol L); type: in vivo, windgrass (Apera spica-venti); conditions: evaluated three weeks after application
How it was run: as §3

velvetleaf [21] = assay: Test Example 5: herbicidal effect by foliage application, plastic box (Table 20, symbol M); type: in vivo, velvetleaf (Abutilon theophrasti); conditions: evaluated three weeks after application
How it was run: as §3

redroot pigweed [22] = assay: Test Example 5: herbicidal effect by foliage application, plastic box (Table 20, symbol N); type: in vivo, redroot pigweed (Amaranthus retroflexus); conditions: evaluated three weeks after application
How it was run: as §3

lambsquarters [23] = assay: Test Example 5: herbicidal effect by foliage application, plastic box (Table 20, symbol O); type: in vivo, lambsquarters (Chenopodium album); conditions: evaluated three weeks after application
How it was run: as §3

chickweed [24] = assay: Test Example 5: herbicidal effect by foliage application, plastic box (Table 20, symbol P); type: in vivo, common chickweed (Stellaria media); conditions: evaluated three weeks after application
How it was run: as §3

persian speedwell [25] = assay: Test Example 5: herbicidal effect by foliage application, plastic box (Table 20, symbol R); type: in vivo, Persian speedwell (Veronica persica); conditions: evaluated three weeks after application
How it was run: as §3

[26] = amount of applied herbicide 320 g/ha
[27] = amount of applied herbicide 320 g/ha, foliage application after 14-day growth

SMILES: Cc1nn(C)c(=O)c(-c2c(-c3ccc(Cl)cc3)sc3ccc(Cl)cc23)c1O [2-099]
- herbicidal effect on H (barnyard grass), rating 0-5 (barnyard grass [1]): 5 (Herbicidal rate of 90% or more (almost completely withered))
- herbicidal effect on D (Chinese sprangletop), rating 0-5 (Chinese sprangletop): 4 (Herbicidal rate of 70% or more and less than 90%)
- herbicidal effect on E (rice flat sedge), rating 0-5 (rice flat sedge): 5 (Herbicidal rate of 90% or more (almost completely withered))
- herbicidal effect rating, F: southern crabgrass (southern crabgrass [2]; 320 g/ha): 0 (Herbicidal rate of 5% or less (almost no effect))
- herbicidal effect rating, G: green foxtail (green foxtail [3]; 320 g/ha): 2 (Herbicidal rate of 20% or more and less than 40%)
- herbicidal effect rating, H: barnyard grass (barnyard grass [4]; 320 g/ha): 0 (Herbicidal rate of 5% or less (almost no effect))
- herbicidal effect rating, I: wild oat (wild oat [5]; 320 g/ha): 0 (Herbicidal rate of 5% or less (almost no effect))
- herbicidal effect rating, J: blackgrass (blackgrass [6]; 320 g/ha): 2 (Herbicidal rate of 20% or more and less than 40%)
- herbicidal effect rating, K: Italian ryegrass (Italian ryegrass [7]; 320 g/ha): 5 (Herbicidal rate of 90% or more (almost completely withered))
- herbicidal effect rating, L: windgrass (windgrass [8]; 320 g/ha): 4 (Herbicidal rate of 70% or more and less than 90%)
- herbicidal effect rating, M: velvetleaf (velvetleaf [9]; 320 g/ha): 0 (Herbicidal rate of 5% or less (almost no effect))
- herbicidal effect rating, N: redroot pigweed (redroot pigweed [10]; 320 g/ha): 3 (Herbicidal rate of 40% or more and less than 70%)
- herbicidal effect rating, O: lambsquarters (lambsquarters [11]; 320 g/ha): 3 (Herbicidal rate of 40% or more and less than 70%)
- herbicidal effect rating, P: chickweed (chickweed [12]; 320 g/ha): 4 (Herbicidal rate of 70% or more and less than 90%)
- herbicidal effect rating, R: persian speedwell (persian speedwell [13]; 320 g/ha): 1 (Herbicidal rate of 5% or more and less than 20%)
- herbicidal effect on F: southern crabgrass (southern crabgrass [14]; foliage application, 320 g/ha): 5 (Herbicidal rate of 90% or more (almost completely withered))
- herbicidal effect on G: green foxtail (green foxtail [15]; foliage application, 320 g/ha): 5 (Herbicidal rate of 90% or more (almost completely withered))
- herbicidal effect on H: barnyard grass (barnyard grass [16]; foliage application, 320 g/ha): 5 (Herbicidal rate of 90% or more (almost completely withered))
- herbicidal effect on I: wild oat (wild oat [17]; foliage application, 320 g/ha): 5 (Herbicidal rate of 90% or more (almost completely withered))
- herbicidal effect on J: blackgrass (blackgrass [18]; foliage application, 320 g/ha): 4 (Herbicidal rate of 70% or more and less than 90%)
- herbicidal effect on K: Italian ryegrass (Italian ryegrass [19]; foliage application, 320 g/ha): 5 (Herbicidal rate of 90% or more (almost completely withered))
- herbicidal effect on L: windgrass (windgrass [20]; foliage application, 320 g/ha): 5 (Herbicidal rate of 90% or more (almost completely withered))
- herbicidal effect on M: velvetleaf (velvetleaf [21]; foliage application, 320 g/ha): 5 (Herbicidal rate of 90% or more (almost completely withered))
- herbicidal effect on N: redroot pigweed (redroot pigweed [22]; foliage application, 320 g/ha): 5 (Herbicidal rate of 90% or more (almost completely withered))
- herbicidal effect on O: lambsquarters (lambsquarters [23]; foliage application, 320 g/ha): 5 (Herbicidal rate of 90% or more (almost completely withered))
- herbicidal effect on P: chickweed (chickweed [24]; foliage application, 320 g/ha): 5 (Herbicidal rate of 90% or more (almost completely withered))
- herbicidal effect on R: persian speedwell (persian speedwell [25]; foliage application, 320 g/ha): 5 (Herbicidal rate of 90% or more (almost completely withered))

SMILES: CCSc1ccc(-c2sc3c(Cl)cccc3c2-c2c(O)c(C)nn(C)c2=O)cc1 [4-094]
- herbicidal effect on barnyard grass (H) (barnyard grass [1]): 5 (Herbicidal rate of 90% or more (almost completely withered))
- herbicidal effect on Chinese sprangletop (D) (Chinese sprangletop): 4 (Herbicidal rate of 70% or more and less than 90%)
- herbicidal effect on rice flat sedge (E) (rice flat sedge): 4 (Herbicidal rate of 70% or more and less than 90%)
- Herbicidal effect by soil treatment, F: southern crabgrass (southern crabgrass [2]; [26]): 0 (Herbicidal rate of 5% or less (almost no effect))
- Herbicidal effect by soil treatment, G: green foxtail (green foxtail [3]; [26]): 0 (Herbicidal rate of 5% or less (almost no effect))
- Herbicidal effect by soil treatment, H: barnyard grass (barnyard grass [4]; [26]): 0 (Herbicidal rate of 5% or less (almost no effect))
- Herbicidal effect by soil treatment, I: wild oat (wild oat [5]; [26]): 0 (Herbicidal rate of 5% or less (almost no effect))
- Herbicidal effect by soil treatment, J: blackgrass (blackgrass [6]; [26]): 0 (Herbicidal rate of 5% or less (almost no effect))
- Herbicidal effect by soil treatment, K: Italian ryegrass (Italian ryegrass [7]; [26]): 2 (Herbicidal rate of 20% or more and less than 40%)
- Herbicidal effect by soil treatment, L: windgrass (windgrass [8]; [26]): 0 (Herbicidal rate of 5% or less (almost no effect))
- Herbicidal effect by soil treatment, M: velvetleaf (velvetleaf [9]; [26]): 0 (Herbicidal rate of 5% or less (almost no effect))
- Herbicidal effect by soil treatment, N: redroot pigweed (redroot pigweed [10]; [26]): 5 (Herbicidal rate of 90% or more (almost completely withered))
- Herbicidal effect by soil treatment, O: lambsquarters (lambsquarters [11]; [26]): 3 (Herbicidal rate of 40% or more and less than 70%)
- Herbicidal effect by soil treatment, P: chickweed (chickweed [12]; [26]): 0 (Herbicidal rate of 5% or less (almost no effect))
- Herbicidal effect by soil treatment, R: persian speedwell (persian speedwell [13]; [26]): 3 (Herbicidal rate of 40% or more and less than 70%)
- Herbicidal effect by foliage application, F: southern crabgrass (southern crabgrass [14]; [27]): 0 (Herbicidal rate of 5% or less (almost no effect))
- Herbicidal effect by foliage application, G: green foxtail (green foxtail [15]; [27]): 4 (Herbicidal rate of 70% or more and less than 90%)
- Herbicidal effect by foliage application, H: barnyard grass (barnyard grass [16]; [27]): 3 (Herbicidal rate of 40% or more and less than 70%)
- Herbicidal effect by foliage application, I: wild oat (wild oat [17]; [27]): 4 (Herbicidal rate of 70% or more and less than 90%)
- Herbicidal effect by foliage application, J: blackgrass (blackgrass [18]; [27]): 5 (Herbicidal rate of 90% or more (almost completely withered))
- Herbicidal effect by foliage application, K: Italian ryegrass (Italian ryegrass [19]; [27]): 4 (Herbicidal rate of 70% or more and less than 90%)
- Herbicidal effect by foliage application, L: windgrass (windgrass [20]; [27]): 5 (Herbicidal rate of 90% or more (almost completely withered))
- Herbicidal effect by foliage application, M: velvetleaf (velvetleaf [21]; [27]): 4 (Herbicidal rate of 70% or more and less than 90%)
- Herbicidal effect by foliage application, N: redroot pigweed (redroot pigweed [22]; [27]): 5 (Herbicidal rate of 90% or more (almost completely withered))
- Herbicidal effect by foliage application, O: lambsquarters (lambsquarters [23]; [27]): 5 (Herbicidal rate of 90% or more (almost completely withered))
- Herbicidal effect by foliage application, P: chickweed (chickweed [24]; [27]): 5 (Herbicidal rate of 90% or more (almost completely withered))
- Herbicidal effect by foliage application, R: persian speedwell (persian speedwell [25]; [27]): 5 (Herbicidal rate of 90% or more (almost completely withered))
